The record followed here is patent USRE47689E1, “Compounds for treating spinal muscular atrophy” (PTC Therapeutics, Inc., priority 2011, dated 2019).

Where two headings read alike, the source gives them in different places.

Data set [1] relates to SMN2 minigene (full length SMN2 minigene mRNA containing SMN2 exon 7). As to the kind of experiment: SMN2 minigene mRNA splicing RT-qPCR assay in cultured cells. Format: cell-based, human. Conditions: Homo sapiens, HEK293-H, read-out: EC1.5x for production of full length SMN2 mRNA. The procedure, abridged:
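Full-length SMN2 minigene mRNA (exon 7 included), minigene-specific and not endogenous SMN, quantified by RT-qPCR multiplexed with GAPDH in stably transfected HEK293H cells after 24 h compound exposure at 37° C. Abundance from efficiency-corrected Ct, normalized to GAPDH and vehicle; EC1.5x reported as star bins.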

The next data set relates to Smn protein. Put plainly: Smn protein assay in cultured cells (SMN HTRF). The class given is cell-based, human. As to conditions: 48 hours; for maximum fold (Fold) increase of Smn protein: SMA patient fibroblast cells, 7-point concentration data, fold increase relative to vehicle control (SMN HTRF); for EC1.5x (concentration giving 1.5-fold Smn protein increase): SMA Type 1 patient fibroblast cells (GM03813), 7-point concentration curve, SMN HTRF, concentration producing 1.5 times Smn protein vs DMSO vehicle control, read-out: EC1.5x for Smn protein expression. The procedure, abridged: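 Smn in SMA fibroblast lysates, measured by anti-SMN HTRF after 48 h compound exposure; EC1.5x from fold change over vehicle.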
(In general: Time-resolved FRET reads energy transfer from a long-lived donor to a nearby acceptor.)

Setting [2] is: HEK293H cells stably transfected with SMN2-A minigene, 24 hours, 7-point concentration curve, 1.5-fold relative to vehicle-treated cells.

By melting point is commonly meant the temperature of the solid-liquid transition. Regarding `Cc1ccn2cc(-c3cc4ccc(N5CCNC(C)(C)C5)cc4oc3=O)nc2c1` [Compound 215, 7-(3,3-dimethylpiperazin-1-yl)-3-(7-methylimidazo[1,2-a]pyridin-2-yl)-2H-chromen-2-one], the melting point was 217 to 223 °C. For the same molecule, the EC (1.5-fold) in data set [1] (setting [2]) was 1 to 3 µM. Further, the “maximum fold (Fold) increase of Smn protein” value (from here on “maximum fold (Fold) increase”) in the data set with Smn protein is “* (maximum fold increase of ≤1.2)”.
Molecule `COc1ccc(-c2cc3c(F)cc(N4CCCN(C)CC4)cc3oc2=O)cc1OC` [Compound 406, 3-(3,4-dimethoxyphenyl)-5-fluoro-7-(4-methyl-1,4-diazepan-1-yl)-2H-chromen-2-one] gave a melting point of 134 to 140 °C. Besides, the EC (1.5-fold) in data set [1] (setting [2]) fell in the range of 3 to 30 µM. In the data set on Smn protein, the “maximum fold (Fold) increase” value was “* (maximum fold increase of ≤1.2)”.
`CNCc1ccc2cc(-c3nc4ccccc4s3)c(=O)oc2c1` [Compound 78, 3-(1,3-benzothiazol-2-yl)-7-[(methylamino)methyl]-2H-chromen-2-one] showed a melting point of 156 to 160 °C. Besides, the EC (1.5-fold) in data set [1] (setting [2]) lay in the range of 0.3 to 1 µM. Besides, the “maximum fold (Fold) increase” value in the data set on Smn protein is “*** (fold increase between >1.35 and ≤1.5)”.
In turn, `C[C@@H]1CN(c2ccc3cc(-c4nc5ccccc5o4)c(=O)oc3c2)C[C@H](C)N1` [Compound 23, 3-(1,3-benzoxazol-2-yl)-7-[(3R,5S)-3,5-dimethylpiperazin-1-yl]-2H-chromen-2-one] gave a melting point of 230 to 232 °C. Besides, the EC (1.5-fold) in data set [1] (setting [2]) lay within 1 to 3 µM. Further, in the data set with Smn protein, the “maximum fold (Fold) increase” value is recorded as “* (maximum fold increase of ≤1.2)”.
Molecule `Cc1cc2cc(-c3cc4ccc(N5CCNCC5)cc4oc3=O)oc2c(C)n1` [Cpd 723, 3-(5,7-dimethylfuro[2,3-c]pyridin-2-yl)-7-(piperazin-1-yl)-2H-chromen-2-one] showed a melting point of 218 to 220 °C. Further, in data set [1] (setting [2]), the EC (1.5-fold) was less than 0.1 µM. In the data set with Smn protein, the EC1.5x (concentration giving 1.5-fold Smn protein increase) was less than 300 nM and the “maximum fold (Fold) increase” value was “***** (fold increase >1.65)”.
For `Cc1cn2cc(-c3cc4ccc(N5C[C@H](O)[C@@H](N6CCCC6)C5)cc4oc3=O)nc2c(C)n1` [Compound 739, 3-(6,8-dimethylimidazo[1,2-a]pyrazin-2-yl)-7-[(3′S,4′S)-4′-hydroxy-1,3′-bipyrrolidin-1′-yl]-2H-chromen-2-one], the melting point lay in the range of 273 to 275 °C. The EC (1.5-fold) in data set [1] (setting [2]) is less than 0.1 µM. Further, in the data set with Smn protein, the EC1.5x (concentration giving 1.5-fold Smn protein increase) was less than 300 nM; the “maximum fold (Fold) increase” value was “**** (fold increase between >1.5 and ≤1.65)”.
Turning to `CCNCCOc1ccc2cc(-c3cn4cc(C)nc(C)c4n3)c(=O)oc2c1` [Compound 930, 3-(6,8-dimethylimidazo[1,2-a]pyrazin-2-yl)-7-[2-(ethylamino)ethoxy]-2H-chromen-2-one], the melting point lay within 189 to 193 °C. The EC (1.5-fold) in data set [1] (setting [2]) was less than 0.1 µM. For the same molecule, in the data set on Smn protein, the EC1.5x (concentration giving 1.5-fold Smn protein increase) is less than 300 nM and the “maximum fold (Fold) increase” value is given as “***** (fold increase >1.65)”.
Molecule `CN1CCN(c2ccc3cc(-c4cn5cccc(F)c5n4)c(=O)oc3c2)CC1` [Compound 150, 3-(8-fluoroimidazo[1,2-a]pyridin-2-yl)-7-(4-methylpiperazin-1-yl)-2H-chromen-2-one] showed a melting point of 278 to 280 °C. Further, the EC (1.5-fold) in data set [1] (setting [2]) was in the range of 0.3 to 1 µM. Also, in the data set with Smn protein, the EC1.5x (concentration giving 1.5-fold Smn protein increase) lay within 3000 to 10000 nM; the “maximum fold (Fold) increase” value is “*** (fold increase between >1.35 and ≤1.5)”.
The molecule `Cc1cn2cc(-c3cc4ccc(N5C[C@H]6CNC[C@H]6C5)cc4oc3=O)nc2cn1` [Compound 718, 7-[(3aR,6aS)-hexahydropyrrolo[3,4-c]pyrrol-2(1H)-yl]-3-(6-methylimidazo[1,2-a]pyrazin-2-yl)-2H-chromen-2-one] came in with a melting point of 282 to 292 °C. Further, the EC (1.5-fold) in data set [1] (setting [2]) was less than 0.1 µM. Moreover, in the data set with Smn protein, the EC1.5x (concentration giving 1.5-fold Smn protein increase) is less than 300 nM; the “maximum fold (Fold) increase” value is “**** (fold increase between >1.5 and ≤1.65)”.
Take `O=c1oc2cc(N3CCCNCC3)cc(F)c2cc1-c1nc2ccccc2[nH]1` [Compound 374, 3-(1H-benzimidazol-2-yl)-7-(1,4-diazepan-1-yl)-5-fluoro-2H-chromen-2-one]: the melting point lay in the range of 236 to 242 °C. In addition, the EC (1.5-fold) in data set [1] (setting [2]) lay within 1 to 3 µM. Also, the “maximum fold (Fold) increase” value in the data set on Smn protein is listed as “* (maximum fold increase of ≤1.2)”.
`Cc1cn2cc(-c3cc4ccc(N5CCN(CCCO)[C@@H](C)C5)cc4oc3=O)nc2c(C)n1` [Compound 907, 3-(6,8-dimethylimidazo[1,2-a]pyrazin-2-yl)-7-[(3S)-4-(3-hydroxypropyl)-3-methylpiperazin-1-yl]-2H-chromen-2-one] displayed a melting point of 187 to 190 °C. For the same molecule, the EC (1.5-fold) in data set [1] (setting [2]) is less than 0.1 µM. In addition, in the data set on Smn protein, the EC1.5x (concentration giving 1.5-fold Smn protein increase) was less than 300 nM; the “maximum fold (Fold) increase” value was “**** (fold increase between >1.5 and ≤1.65)”.
Take `Cc1cn2cc(-c3cc4ccc(C5CCNCC5)cc4oc3=O)cnc2n1` [Compound 834, 3-(2-methylimidazo[1,2-a]pyrimidin-6-yl)-7-(piperidin-4-yl)-2H-chromen-2-one]: the melting point fell in the range of 280 to 281 °C. Moreover, in data set [1] (setting [2]), the EC (1.5-fold) is less than 0.1 µM. In the data set with Smn protein, the EC1.5x (concentration giving 1.5-fold Smn protein increase) is less than 300 nM and the “maximum fold (Fold) increase” value is recorded as “***** (fold increase >1.65)”.
In turn, `CN(C)[C@H]1[C@@H]2CN(c3ccc4cc(-c5cn6ccsc6n5)c(=O)oc4c3)C[C@@H]21` [Compound 437, 7-[(1R,5S,6s)-6-(dimethylamino)-3-azabicyclo[3.1.0]hex-3-yl]-3-(imidazo[2,1-b][1,3]thiazol-6-yl)-2H-chromen-2-one] returned a melting point of 233 to 235 °C. The EC (1.5-fold) in data set [1] (setting [2]) fell in the range of 1 to 3 µM. Also, the “maximum fold (Fold) increase” value in the data set on Smn protein was “** (fold increase between >1.2 and ≤1.35)”.
For the molecule `Cc1cn2cc(-c3cc4ccc(N5CCN6CCC[C@@H]6C5)cc4oc3=O)nc2c(C)n1` [Compound 632, 3-(6,8-dimethylimidazo[1,2-a]pyrazin-2-yl)-7-[(8aR)-hexahydropyrrolo[1,2-a]pyrazin-2(1H)-yl]-2H-chromen-2-one], the melting point is 255 to 258 °C. Also, the EC (1.5-fold) in data set [1] (setting [2]) is less than 0.1 µM. Besides, in the data set with Smn protein, the EC1.5x (concentration giving 1.5-fold Smn protein increase) is less than 300 nM and the “maximum fold (Fold) increase” value is listed as “***** (fold increase >1.65)”.
As to `O=c1oc2cc(CNC(CO)CO)ccc2cc1-c1nc2ccccc2s1` [Compound 99, 3-(1,3-benzothiazol-2-yl)-7-{[(1,3-dihydroxypropan-2-yl)amino]methyl}-2H-chromen-2-one], the melting point is 194 to 197 °C. In addition, the EC (1.5-fold) in data set [1] (setting [2]) was 3 to 30 µM. In addition, in the data set with Smn protein, the “maximum fold (Fold) increase” value was “* (maximum fold increase of ≤1.2)”.
Consider `Cc1cn2cc(-c3cc4ccc(N5CC(N(C)C)C5)cc4oc3=O)nc2c(C)n1` [Cpd 943, 7-[3-(dimethylamino)azetidin-1-yl]-3-(6,8-dimethylimidazo[1,2-a]pyrazin-2-yl)-2H-chromen-2-one], for which the melting point lay within 246 to 250 °C. Also, the EC (1.5-fold) in data set [1] (setting [2]) was less than 0.1 µM. Moreover, in the data set with Smn protein, the EC1.5x (concentration giving 1.5-fold Smn protein increase) was less than 300 nM; the “maximum fold (Fold) increase” value is “**** (fold increase between >1.5 and ≤1.65)”.
For `Cc1cn2cc(-c3cc4ccc(CCCCN(C)CCO)cc4oc3=O)nc2c(C)n1` [Compound 903, 3-(6,8-dimethylimidazo[1,2-a]pyrazin-2-yl)-7-{4-[(2-hydroxyethyl)(methyl)amino]butyl}-2H-chromen-2-one], the melting point fell in the range of 156 to 160 °C. In addition, in data set [1] (setting [2]), the EC (1.5-fold) was less than 0.1 µM. Further, in the data set on Smn protein, the EC1.5x (concentration giving 1.5-fold Smn protein increase) was in the range of 300 to 1000 nM; the “maximum fold (Fold) increase” value is “**** (fold increase between >1.5 and ≤1.65)”.
`CNCCCCc1ccc2cc(-c3cn4cc(C)nc(C)c4n3)c(=O)oc2c1` [Compound 952, 3-(6,8-dimethylimidazo[1,2-a]pyrazin-2-yl)-7-[4-(methylamino)butyl]-2H-chromen-2-one] came in with a melting point of 180 to 184 °C. Besides, the EC (1.5-fold) in data set [1] (setting [2]) was less than 0.1 µM. For the same molecule, in the data set with Smn protein, the EC1.5x (concentration giving 1.5-fold Smn protein increase) is less than 300 nM and the “maximum fold (Fold) increase” value is “***** (fold increase >1.65)”.
With `Cc1ccn2cc(-c3cc4ccc(N5CCN6CCC5CC6)cc4oc3=O)nc2c1` [Compound 521, 7-(1,4-diazabicyclo[3.2.2]non-4-yl)-3-(7-methylimidazo[1,2-a]pyridin-2-yl)-2H-chromen-2-one], the melting point is 216 to 223 °C. Also, the EC (1.5-fold) in data set [1] (24 h) lay in the range of 0.3 to 1 µM. The “maximum fold (Fold) increase” value in the data set with Smn protein is “** (fold increase between >1.2 and ≤1.35)”.
For `CN1CCCN(c2ccc3cc(-c4cn5cccnc5n4)c(=O)oc3c2)CC1` [Compound 118, 3-(imidazo[1,2-a]pyrimidin-2-yl)-7-(4-methyl-1,4-diazepan-1-yl)-2H-chromen-2-one], the melting point fell in the range of 252 to 254 °C. Besides, in data set [1] (setting [2]), the EC (1.5-fold) is 0.1 to 0.3 µM. For the same molecule, in the data set on Smn protein, the EC1.5x (concentration giving 1.5-fold Smn protein increase) was less than 300 nM and the “maximum fold (Fold) increase” value was “***** (fold increase >1.65)”.
In the case of `Cc1cc(F)c2nc(-c3cc4ccc(N[C@@H]5CCNC5)cc4oc3=O)cn2c1` [Compound 583, 3-(8-fluoro-6-methylimidazo[1,2-a]pyridin-2-yl)-7-[(3R)-pyrrolidin-3-ylamino]-2H-chromen-2-one], the melting point was 231 to 238 °C. Besides, the EC (1.5-fold) in data set [1] (setting [2]) fell in the range of 0.3 to 1 µM. Further, the “maximum fold (Fold) increase” value with Smn protein is “** (fold increase between >1.2 and ≤1.35)”.
